According to US20100317578A1, “METHOD OF PROTECTING AGAINST STROKE THROUGH THE USE OF A DELTA OPIOID PEPTIDE” (priority 2009, published 2010):

How the values were obtained:
Type in all cases: in vivo, Sprague-Dawley rats
[1] = tested on: glial cell line-derived neurotrophic factor (GDNF); assay: ELISA assay of GDNF in brain tissues; conditions: striatal and cortical tissues, p<0.05
Method: (§1) To examine possible non-opioid effects of DADLE, assays of expression of neurotrophic factors (glial cell line-derived neurotrophic factor (GDNF) and nerve growth factor (NGF)) that have been previously shown to be protective against ischemia were performed. Enzyme-linked immunosorbent assay (ELISA) was conducted on ischemic animals injected either with DADLE or saline (n=6 per group). Following the same drug dosing regimen mentioned above, animals were rapidly decapitated, their brains removed and striatal and frontal cortical tissues quickly dissected. Brain homogenization and supernatant acidification were performed using methods as described in Okragly et al., Exp Neurol 1997, 145:592-596 [37] with minor modifications. Protein concentrations were measured by using the BCA Kit (Pierse, Rockford, Ill. USA). For the measurement of GDNF, mouse monoclonal anti-GDNF antibody (R & D Systems, Inc., Minnesota, USA) was used as a capture antibody and biotinylated goat anti-GDNF antibody (R & D Systems, Inc., Minnesota, USA) was used as a detection antibody. For the measurement of NGF, the NGF Emax TM ImmunoAssay system (Promega Cooperation, Madison, Wis., USA) was used. The THERMOmax 96-well microplate reader (Molecular Devices Corp., Sunnyvale, Calif. USA) was used to measure the optical densities.

[2] = tested on: cerebral infarction in the striatum after MCAor; assay: Cerebral infarction assay (TTC staining)
p53 mRNA = assay: Determination of p53 mRNA expression (northern blot); conditions: 24 hr post-MCAor
Method: To examine whether DADLE altered programmed cell death or apoptosis, which has been postulated to mediate ischemia-induced cell injury, the mRNA expression of the apoptotic marker p53 were assayed. At 24 hr and 72 hr after MCAor surgery, randomly selected animals that received either DADLE alone or saline alone were euthanized by rapid decapitation. The striatum was dissected and quickly frozen using dry ice then stored in −80° C. freezer until tissue processing was conducted. Total RNA extraction, northern blot analysis and hybridization were conducted using standard methods as described in Chomczynski et al., Anal Biochem 1987, 162:156-159 and Mattson, Brain Res 2000, 886:47-53 [34,35]. Analyses of resulting bands were quantified using a Macintosh computer-based image analysis system (Image, NIH). Densitometrically determined intensities of p-53 mRNA was normalized to 18S rRNA.

caspase-3 = assay: Immunohistochemistry of apoptosis markers, caspase-3; conditions: ischemic striatum, 72 hours after MCAor
Method: (§2) In order to further characterize the effects of DADLE on apoptotic cell death, 20 animals were subjected to the same procedures as above, and the treatment effects of DADLE (n=10) against saline vehicle alone (n=10) were compared. Rats were euthanized at 72 hours after MCAor surgery. The rats were perfused transcardially with 200 ml of cold phosphate-buffered saline (PBS) and 200 ml of 4% paraformaldehyde in PBS. Brains were removed and post-fixed in the same fixative overnight at 4° C. with the subsequent replacement with 30% sucrose in PBS for 72 hours. The brains were coronally sectioned at the thickness of 8 μm. Sections were washed 3 times for 5 minutes in PBS. Sections were then incubated overnight at 4° C. with caspase-3 (Abeam, 1:500) or Fas (Santa Cruz Biotechnology, 1:100) primary antibody and washed 3 times in PBS. […]
(§3) For morphological analyses, immunoreactive cells in the striatum within the ipsilateral to the stroke hemisphere were examined using a Zeiss LSM510 confocal microscope (Oberkochen, Germany). Specifically, 6 coronal sections at every 300 μm that approximately captured the ischemic striatum (AP −2.0 to +2.0 mm from the bregma) were examined from each rat and the number of positive cells was counted in each 6 high power fields and the averages were used for the statistical analyses. […]

[3] = tested on: nerve growth factor (NGF); assay: ELISA assay of NGF in brain tissues; conditions: striatal and cortical tissues, p>0.05
Method: as §1

Fas = assay: Immunohistochemistry of apoptosis markers, Fas; conditions: ischemic striatum, 72 hours after MCAor
Method: as §2, §3

[4] = tested on: ischemia-induced asymmetrical motor deficits (MCAor); assay: Battery of behavioral tests after MCAor surgery
[5] = tested on: ischemia-induced spontaneous rotational behavior (MCAor); assay: Spontaneous rotational test; conditions: pooled mean of ischemic animals pretreated with saline, naltrexone alone or naloxone methiodide alone
Method: (§4) After recovery from anesthesia, animals were evaluated on a battery of tests including spontaneous rotational test, elevated body swing test (EBST), postural bias test and forelimb akinesia test.
(§5) The spontaneous rotational test was performed immediately after the animal's recovery from anesthesia following insertion of the embolus. The animal was placed in a chamber made of transparent Plexiglas (40×40×35.5 cm) and the direction of the animal's rotation was noted over two 5-minute sessions. Two full turns (tight ipsiversive rotations) per minute was considered indicative of a brain insult. For the postural bias test and forelimb akinesia test, a semiquantitative scale was used as described in Bederson et al., Stroke 1986, 17:472-476 [33].

[6] = tested on: ischemia-induced postural bias (MCAor); assay: Postural bias (tail-hang) test; conditions: scale 0-3; pooled mean of ischemic animals pretreated with saline, naltrexone alone or naloxone methiodide alone
Method: as §5
The postural tail-hang test involved holding the animal by the tail (similar to the EBST) and noting the positions of the forelimbs. A scale is used for grading the ischemic injury-induced dysfunctions as follows: 0, rats extend straight both forelimbs, no observable deficit; 1, rats keep the left forelimb to the breast and extend straight the right forelimb; 2, rats show decreased resistance to lateral push in addition to behavior in score 1 without circling; 3, rats twist the upper half of their body in addition to behavior in score 2.
Finally, the forelimb akinesia test involved pulling each forelimb at 90 degrees away from the body median axis. The return of the forelimb towards the midline was scored as 0 for slow movement with rigidity, 1 for slow movement, and 2 for smooth rapid movement. […]

[7] = tested on: ischemia-induced forelimb akinesia (MCAor); assay: Forelimb akinesia test; conditions: scale 0-2; pooled mean of ischemic animals pretreated with saline, naltrexone alone or naloxone methiodide alone
Method: The spontaneous rotational test [32] was performed immediately after the animal's recovery from anesthesia following insertion of the embolus. The animal was placed in a chamber made of transparent Plexiglas (40×40×35.5 cm) and the direction of the animal's rotation was noted over two 5-minute sessions. Two full turns (tight ipsiversive rotations) per minute was considered indicative of a brain insult [17,32].
Finally, the forelimb akinesia test involved pulling each forelimb at 90 degrees away from the body median axis. The return of the forelimb towards the midline was scored as 0 for slow movement with rigidity, 1 for slow movement, and 2 for smooth rapid movement. A score of 1 in the scale for postural bias test or forelimb akinesia test was considered as indicative of CNS dysfunction [17].

[8] = tested on: ischemia-induced biased swing activity (MCAor); assay: Elevated body swing test (EBST); conditions: pooled mean of ischemic animals pretreated with saline, naltrexone alone or naloxone methiodide alone
Method: as §4
The EBST is described in detail in Borlongan et al., Exp Neurol 1998, 149:310-321[17], and has been utilized to characterize the biased swing activity of ischemic animals starting at one month post-ischemia and extending up to three months post-surgery. The animal was lifted 20 times by its tail and the direction of the swing was recorded.

SMILES	levels of GDNF compared to saline-treated ischemic animals [1]	mean volume of infarcted striatal tissue ([2]; rat, in vivo)	increment in p-53 mRNA expression in ischemic striatum compared to intact striatum of control, normal animals (p53 mRNA; normalized to 18S rRNA, vehicle 65% increment, not significant vs control (p>0.05)) [%]	p-53 mRNA expression in ischemic striatum compared to vehicle-treated ischemic animals (p53 mRNA; only a trend, p=0.07)	caspase-3-positive cells compared to vehicle-treated ischemic animals (caspase-3)	levels of NGF compared to saline-treated ischemic animals [3]	Fas-positive cells compared to vehicle-treated ischemic animals (Fas)	behavior in EBST, spontaneous rotational test, postural bias test and forelimb akinesia test ([4]; rat, in vivo)	mean ipsiversive rotations per minute [5] [rotations per minute]	mean volume of infarcted striatal tissue ([2]; TTC staining at 24 or 72 hr after reperfusion, saline 81.2±5.3 mm^3) [mm^3]	mean postural bias score [6]	mean akinesia score [7]	mean percentage biased swing response [8]	behavior in EBST, spontaneous rotational test, postural bias test and forelimb akinesia test ([4]; ischemic rats, pretreatment i.p. before MCAor, throughout the post-MCAor test period (day 0 to 3))
CC(C)C[C@@H](NC(=O)[C@H](Cc1ccccc1)NC(=O)CNC(=O)[C@@H](C)NC(=O)[C@@H](N)Cc1ccc(O)cc1)C(=O)O [DADLE, [D-Ala^2,D-Leu^5]enkephalin]	significantly higher	no detectable infarction	28	marked reduction	significant reductions	did not differ	significant reductions	near-normal behaviors	–	–	–	–	–	–
C=CC[N+]1(C)CC[C@]23c4c5ccc(O)c4O[C@H]2C(=O)CC[C@@]3(O)[C@H]1C5 (stereo partly drawn) [naloxone methiodide]	–	–	–	–	–	–	–	significant abnormalities	2.52±0.56	78.7±7.4	2.25±0.31	1.17±0.15	82.8%±12.3	–
O=C1CC[C@@]2(O)[C@H]3Cc4ccc(O)c5c4[C@@]2(CCN3CC2CC2)[C@H]1O5 [naltrexone]	–	–	–	–	–	–	–	–	2.52±0.56	–	2.25±0.31	–	82.8%±12.3	significant abnormalities
